Assay results as given in article PMC11947346, “Synthesis and preclinical evaluation of gastrin releasing peptide receptor antagonist [^18F]MeTz-PEG2-RM26 for positron emission tomography” (EJNMMI Radiopharmacy and Chemistry, 2025).

Tests used:
GRPR = molecular target: T1, GRPR (Homo sapiens, UniProt P30550); assay: In vitro competitive binding assay against [^125I]I-Tyr^4-BBN; IC50 determination; conditions: PC-3 cells
T1 construct: investigated using GRPR-expressing PC-3 cells; endogenous in cells; host or cells: PC-3 cells
Method: The half maximal inhibitory concentration (IC50) was determined for F-MeTz-PEG2-RM2 (8b), Ga-loaded NOTA-PEG2-RM26 (Varasteh et al. [2013b], [2015]) conjugate was used as a comparator. […] Briefly, 10^5 cells were incubated the day before. […] After incubation, the cells were collected, and their activity was measured.

[1] = Method: [^18F]MeTz-TCO-PEG2-RM26 (8a) (330 pmol, 1.2 MBq) was added and the tube was vortexed for 2 min. The tube was centrifuged for 20 s to separate the phases. Fractions of each phase were collected and the radioactivity content was measured.
[2] = molecular target: T2, GRPR-expressing PC-3 cells (Homo sapiens, UniProt P30550); assay: In vitro binding to GRPR with and without preblocking of GRPR; format: cell-based; conditions: 8–10 nM radioligand, 1 h at 37 °C, preblocking with 1 µM NOTA-PEG2-RM26 for 10 min at rt, n = 3, P < 0.0001
T2 construct: investigated using GRPR-expressing PC-3 cells; endogenous in cells; host or cells: PC-3 cells
Method: PC-3 cells (1 × 10^6 cells/well) were seeded on 6-well dishes one day before the experiment. On the day of the experiment, a set of wells was incubated with 1 µM/well of NOTA-PEG2-RM26 for 10 min at rt to block GRPR. After incubation, 8–10 nM (1.2–17.5 kBq) of [^18F]MeTz-PEG2-RM26 (8a) was added to the pretreated and non-treated wells, and the cells were incubated for 1 h at 37 °C. Thereafter, cells were detached using trypsin-EDTA (ethylenediaminetetraacetic acid), collected, and measured for their radioactivity content. The internalisation assay was done after 1 h of incubation as previously described (Varasteh et al. [2013b]).

in vivo = conditions: mouse, total radioactivity; for tissue uptake at 1 h / tissue uptake at 2 h / tissue to tissue ratio at 1 h / tissue to tissue ratio at 2 h: Balb/c nu/nu, 48 pmol; for tissue uptake dose at 0.5 h / tissue uptake at 0.5 h: NMRI; for tissue uptake at 0.5 h: NMRI mice, 30 min pi
Method: (§1) [^18F]MeTz-PEG2-RM26 (8a) (30 kBq, 40 pmol) was evaluated in NMRI mice to assess the biodistribution in normal organs. A group of NMRI mice (n = 3) was additionally co-injected with 5 nmol of NOTA-PEG2-RM26 to block GRPR. Mice were euthanised at 30 min post-injection (pi) and the organs of interest were collected, weighed, and measured for their radioactivity content. Further, Balb/c nu/nu mice (4 mice in each group) were used to evaluate the uptake in normal organs and the GRPR-expressing tumour model (PC-3). In short, 7 × 10^6 freshly harvested PC-3 cells were suspended in 100 µl sterile PBS and were implanted subcutaneously at the right hind leg of each mouse. […] [^18F]MeTz-PEG2-RM26 (8a) (120 kBq, 48 pmol) was injected and mice were euthanised at predetermined time points of 1 and 2 h pi. An additional group was co-injected with 5 nmol of NOTA-PEG2-RM26 to block GRPR and was euthanized at 2 h pi. The collected organs were weighed and the radioactivity content was measured in each organ.

NMRI mice = assay: in vivo
Method: as §1

[3] = tested on: GRPR-expressing PC-3 xenografts; assay: in vivo; conditions: PC-3 xenografted Balb/c nu/nu mice, 2 h pi, blocked: co-injected with 5 nmol NOTA-PEG2-RM26, mean ± SD, n = 4
Method: as §1

[4] = NMRI mice, 30 min pi, 40 pmol (30 kBq), non-blocked, mean ± SD, n = 3–4

T2 sequence (P30550 whole entry): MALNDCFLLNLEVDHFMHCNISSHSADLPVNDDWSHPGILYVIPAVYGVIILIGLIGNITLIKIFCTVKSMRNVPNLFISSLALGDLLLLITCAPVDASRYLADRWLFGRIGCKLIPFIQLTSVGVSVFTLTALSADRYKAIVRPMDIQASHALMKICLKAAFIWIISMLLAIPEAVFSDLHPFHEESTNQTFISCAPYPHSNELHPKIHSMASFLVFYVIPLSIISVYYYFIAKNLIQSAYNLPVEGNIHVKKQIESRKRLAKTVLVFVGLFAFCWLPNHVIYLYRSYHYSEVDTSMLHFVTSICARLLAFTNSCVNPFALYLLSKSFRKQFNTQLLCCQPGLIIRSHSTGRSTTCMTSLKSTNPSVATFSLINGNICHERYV
T1 sequence (P30550 whole entry): as above

CC1=NNC(c2ccc(CNC(=O)c3ccc(F)nc3)cc2)=C2CCC[C@H](OC(=O)NCCOCCOCCC(=O)N[C@H](Cc3ccccc3)C(=O)N[C@@H](CCC(N)=O)C(=O)N[C@@H](Cc3c[nH]c4ccccc34)C(=O)N[C@@H](C)C(=O)N[C@H](C(=O)NCC(=O)N[C@@H](Cc3c[nH]cn3)C(=O)N[C@@H](CC(C)C)[C@@H](O)CC(=O)N[C@@H](CC(C)C)C(N)=O)C(C)C)CCC12 (stereo partly drawn) [8b]
decrease in binding affinity versus Ga-NOTA-PEG2-RM26 (IC50 ratio) (GRPR): 6.8 fold

CC1=NNC(c2ccc(CNC(=O)c3ccc(F)nc3)cc2)=C2CCC[C@H](OC(=O)NCCOCCOCCC(=O)N[C@H](Cc3ccccc3)C(=O)N[C@@H](CCC(N)=O)C(=O)N[C@@H](Cc3c[nH]c4ccccc34)C(=O)N[C@@H](C)C(=O)N[C@H](C(=O)NCC(=O)N[C@@H](Cc3c[nH]cn3)C(=O)N[C@@H](CC(C)C)[C@@H](O)CC(=O)N[C@@H](CC(C)C)C(N)=O)C(C)C)CCC12 (stereo partly drawn) [8a]
logP [1]: 1.6 ± 0.2
activity uptake upon target saturation (GRPR specificity) [2]: statistically significant reduction of activity uptake upon target saturation
tissue uptake at 1 h (in vivo; blood): 2.5 ± 0.4 %ID/g
tissue uptake at 2 h (in vivo; blood): 1.8 ± 0.6 %ID/g
tissue uptake at 1 h (in vivo; bone): 0.8 ± 0.2 %ID/g
tissue uptake at 2 h (in vivo; bone): 0.6 ± 0.04 %ID/g
tissue uptake at 1 h (in vivo; kidneys): 2.4 ± 0.1 %ID/g
tissue uptake at 2 h (in vivo; kidneys): 1.9 ± 0.7 %ID/g
tissue uptake at 1 h (in vivo; liver): 12 ± 2 %ID/g
tissue uptake at 2 h (in vivo; liver): 7 ± 2 %ID/g
tissue uptake at 1 h (in vivo; lungs): 1.3 ± 0.1 %ID/g
tissue uptake at 2 h (in vivo; lungs): 1.5 ± 0.8 %ID/g
tissue uptake at 1 h (in vivo; muscle): 0.33 ± 0.04 %ID/g
tissue uptake at 2 h (in vivo; muscle): 0.3 ± 0.1 %ID/g
tissue uptake at 1 h (in vivo; pancreas): 16 ± 1 %ID/g
tissue uptake at 2 h (in vivo; pancreas): 17 ± 4 %ID/g
tissue uptake at 1 h (in vivo; small intestine): 6 ± 3 %ID/g
tissue uptake at 2 h (in vivo; small intestine): 4 ± 3 %ID/g
tissue uptake at 1 h (in vivo; spleen): 0.9 ± 0.2 %ID/g
tissue uptake at 2 h (in vivo; spleen): 0.8 ± 0.6 %ID/g
tissue uptake at 1 h (in vivo; tumour (PC-3 xenograft)): 2.4 ± 0.1 %ID/g
tissue uptake at 2 h (in vivo; tumour (PC-3 xenograft)): 2.7 ± 0.5 %ID/g
tissue to tissue ratio at 1 h (in vivo; tumour / blood): 0.97 ± 0.1
tissue to tissue ratio at 2 h (in vivo; tumour / blood): 1.5 ± 0.2
tissue to tissue ratio at 1 h (in vivo; tumour / bone): 3.2 ± 0.5
tissue to tissue ratio at 2 h (in vivo; tumour / bone): 5 ± 1
tissue to tissue ratio at 1 h (in vivo; tumour / kidneys): 0.99 ± 0.08
tissue to tissue ratio at 2 h (in vivo; tumour / kidneys): 1.6 ± 0.6
tissue to tissue ratio at 1 h (in vivo; tumour / liver): 0.2 ± 0.02
tissue to tissue ratio at 2 h (in vivo; tumour / liver): 0.4 ± 0.1
tissue to tissue ratio at 1 h (in vivo; tumour / lungs): 1.9 ± 0.1
tissue to tissue ratio at 2 h (in vivo; tumour / lungs): 2.2 ± 1
tissue to tissue ratio at 1 h (in vivo; tumour / muscle): 7.4 ± 0.7
tissue to tissue ratio at 2 h (in vivo; tumour / muscle): 12 ± 4
tissue to tissue ratio at 1 h (in vivo; tumour / pancreas): 0.15 ± 0.02
tissue to tissue ratio at 2 h (in vivo; tumour / pancreas): 0.17 ± 0.05
tissue to tissue ratio at 1 h (in vivo; tumour / small intestine): 0.5 ± 0.2
tissue to tissue ratio at 2 h (in vivo; tumour / small intestine): 0.7 ± 0.3
tissue to tissue ratio at 1 h (in vivo; tumour / spleen): 2.6 ± 0.5
tissue to tissue ratio at 2 h (in vivo; tumour / spleen): 4 ± 2
tissue uptake at 1 h (in vivo; tumour): 2.4 ± 0.1 %ID/g
tissue uptake dose at 0.5 h (in vivo; GI tract with content (whole intestine), 40 pmol): 38 ± 4 %ID
tissue uptake dose at 0.5 h (in vivo; GI tract with content): 32 ± 4 %ID
tissue uptake at 0.5 h (in vivo; blood, 40 pmol, activity uptake in blood, 40 pmol (30 kBq), non-blocked, mean ± SD, n = 3–4): 5 ± 1 %ID/g
tissue uptake at 0.5 h (in vivo; blood, activity uptake in blood, 40 pmol, blocked: co-injected with 5 nmol NOTA-PEG2-RM26, mean ± SD, n = 3): 4 ± 1 %ID/g
tissue uptake at 0.5 h (in vivo; bone, 40 pmol, activity uptake in bone, 40 pmol (30 kBq), non-blocked, mean ± SD, n = 3–4): 0.8 ± 0.1 %ID/g
tissue uptake at 0.5 h (in vivo; bone, activity uptake in bone, 40 pmol, blocked: co-injected with 5 nmol NOTA-PEG2-RM26, mean ± SD, n = 3): 0.7 ± 0.1 %ID/g
tissue uptake at 0.5 h (in vivo; kidneys, activity uptake in kidneys, 40 pmol, blocked: co-injected with 5 nmol NOTA-PEG2-RM26, mean ± SD, n = 3): 3.1 ± 0.6 %ID/g
tissue uptake at 0.5 h (in vivo; liver, 40 pmol, activity uptake in liver, 40 pmol (30 kBq), non-blocked, mean ± SD, n = 3–4): 12 ± 0.7 %ID/g
tissue uptake at 0.5 h (in vivo; liver, activity uptake in liver, 40 pmol, blocked: co-injected with 5 nmol NOTA-PEG2-RM26, mean ± SD, n = 3): 12 ± 2 %ID/g
tissue uptake dose at 0.5 h (in vivo; rest of the carcass, 40 pmol): 15 ± 2 %ID
tissue uptake dose at 0.5 h (in vivo; rest of the carcass): 16 ± 4 %ID
tissue uptake at 0.5 h (in vivo; spleen, 40 pmol, activity uptake in spleen, 40 pmol (30 kBq), non-blocked, mean ± SD, n = 3–4): 1.4 ± 0.1 %ID/g
tissue uptake at 0.5 h (in vivo; spleen, activity uptake in spleen, 40 pmol, blocked: co-injected with 5 nmol NOTA-PEG2-RM26, mean ± SD, n = 3): 0.9 ± 0.2 %ID/g
tissue uptake dose at 0.5 h (in vivo; whole body, 40 pmol): 84 ± 7 %ID
activity uptake in bone (NMRI mice; [4]): 0.8 ± 0.1 %IA/g
activity uptake in liver (NMRI mice; [4]): 12.0 ± 0.7 %IA/g
in vivo defluorination (stability of the fluorine-carbon bond) (NMRI mice; judged from bone uptake in the biological evaluation in mice): no significant signs of in vivo defluorination
activity uptake in pancreas [3]: 4 ± 1 %IA/g
